The text below walks through data of patent publication US20210214364A1, “sGC STIMULATORS” (Cyclerion Therapeutics, Inc., priority 2013, published 2021).

The test system of experiment [1] is lambs with acute pulmonary hypertension (U-46619). To be noted: cited from earlier work; for effect on mean arterial pressure / pulmonary vasodilation / transpulmonary cGMP release / systemic arterial oxygenation: awake lambs; for effect on mean arterial pressure / pulmonary vasodilation / transpulmonary cGMP release: U-46619 infusion.
Another experiment has as its system patients with BMD. To be noted: single oral dose of 20 mg, double-blind randomized placebo-controlled crossover trial; cited from earlier work.
Experiment [2] concerns the target T1, soluble guanylate cyclase (sGC) endogenously expressed in HEK293 cells (Homo sapiens, UniProt Q02108+Q02153).
T1 construct: endogenously expressing soluble guanylate cyclase (sGC); endogenous in cells; host or cells: HEK293
T1 sequence (Q02153 1-619): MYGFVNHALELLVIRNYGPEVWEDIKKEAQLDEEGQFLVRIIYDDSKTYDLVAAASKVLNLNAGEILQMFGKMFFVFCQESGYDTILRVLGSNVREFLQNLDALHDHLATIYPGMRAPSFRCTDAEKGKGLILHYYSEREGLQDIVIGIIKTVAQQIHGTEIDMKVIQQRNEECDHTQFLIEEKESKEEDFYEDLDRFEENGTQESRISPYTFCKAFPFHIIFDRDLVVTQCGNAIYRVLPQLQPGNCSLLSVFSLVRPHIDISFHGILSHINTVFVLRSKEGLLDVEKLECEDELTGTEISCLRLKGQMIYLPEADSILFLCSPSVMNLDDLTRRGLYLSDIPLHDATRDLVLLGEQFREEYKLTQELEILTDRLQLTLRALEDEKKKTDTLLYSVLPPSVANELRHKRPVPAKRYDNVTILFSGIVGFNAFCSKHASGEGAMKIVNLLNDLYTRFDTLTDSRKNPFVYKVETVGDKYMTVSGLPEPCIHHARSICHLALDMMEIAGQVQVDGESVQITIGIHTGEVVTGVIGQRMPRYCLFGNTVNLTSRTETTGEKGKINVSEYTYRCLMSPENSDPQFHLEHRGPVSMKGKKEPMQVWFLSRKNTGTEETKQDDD
T1 sequence (Q02108 1-690): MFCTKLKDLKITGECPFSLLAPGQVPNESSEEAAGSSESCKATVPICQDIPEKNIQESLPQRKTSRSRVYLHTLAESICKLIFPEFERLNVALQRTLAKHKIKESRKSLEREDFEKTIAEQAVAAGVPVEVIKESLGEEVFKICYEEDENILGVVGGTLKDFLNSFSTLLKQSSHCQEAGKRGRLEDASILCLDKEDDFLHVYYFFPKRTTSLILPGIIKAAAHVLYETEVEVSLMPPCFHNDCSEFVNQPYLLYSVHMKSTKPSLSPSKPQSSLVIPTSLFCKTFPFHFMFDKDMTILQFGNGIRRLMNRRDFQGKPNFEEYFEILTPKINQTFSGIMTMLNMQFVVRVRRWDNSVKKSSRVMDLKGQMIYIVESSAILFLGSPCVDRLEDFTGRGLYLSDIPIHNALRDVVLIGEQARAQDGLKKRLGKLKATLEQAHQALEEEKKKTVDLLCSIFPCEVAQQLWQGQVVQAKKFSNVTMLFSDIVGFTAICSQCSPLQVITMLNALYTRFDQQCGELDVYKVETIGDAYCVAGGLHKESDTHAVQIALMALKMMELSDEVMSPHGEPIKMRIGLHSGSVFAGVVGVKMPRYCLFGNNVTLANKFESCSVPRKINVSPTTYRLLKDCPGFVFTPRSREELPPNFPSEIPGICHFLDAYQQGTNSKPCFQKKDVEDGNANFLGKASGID
The experiment in a line: sGC-HEK-cGMP assay with LC/MS detection (whole cell). It is filed as cell-based. To be noted: 10 μM DETA-NONOate, 20 min, concentration eliciting 50% of high control response (30 μM Compound Y), read-out: sGC_HEK_LC MS EC50 Abs. The protocol:
Example 2: Biological Activity Measurement by the sGC-HEK-cGMP Assay, with LC/MS Detection
Human embryonic kidney cells (HEK293), endogenously expressing soluble guanylate cyclase (sGC), were used to evaluate the activity of test compounds. Compounds stimulating the sGC enzyme should cause an increase in the intracellular concentration of cGMP. HEK 293 cells were seeded in Dulbecco's Modification of Eagle's Medium supplemented with fetal bovine serum (10% final) and penicillin (100 U/mL)/streptomycin (100 μg/mL) in a 50 μL volume at a density of 1.5×10^4 cells/well in a poly-D-lysine coated 384 well flat bottom plate. Cells were incubated overnight at 37° C. in a humidified chamber with 5% CO2. Medium was aspirated and cells were washed with 1× Hank's Buffered Saline Salt Solution (50 μL). Cells were then incubated for 15 minutes at 37° C. with 50 μL of a 0.5 mM 3-isobutyl-1-methylxanthine (IBMX) solution. Test article and Diethylenetriamine NONOate (DETA-NONOate) solutions (x […] concentration for test article solution and 10 μM concentration for DETA-NONOate solution; wherein x is one of the following concentrations);
were then added to the assay mixture and the resulting mixture incubated at 37° C. for 20 minutes. After the 20 minute incubation, the assay mixture was aspirated and 10% acetic acid containing 150 ng/mL+3-cGMP (internal standard for LCMS) (50 μL) was added to the cells. The plate was incubated at 4° C. for 30 minutes in the acetic acid solution to stop the reaction and lyse the cells. The plates were then centrifuged at 1,000 g for 3 minutes at 4° C. and the supernatant transferred to a clean reaction plate for LCMS analysis.
cGMP concentrations were determined from each sample using the LCMS conditions below (Table 2) and calculated standard curve. The standard curve was prepared in 10% acetic acid with 150 ng/mL+3cGMP (isotopically labelled cGMP with a weight 3 units higher than wild type) with the following final concentrations of cGMP in ng/mL: 1, 5, 10, 50, 100, 250, 500, 1000, 2000.
Data were normalized to a high control using the following equation: 100*(Sample−Low Control)/(High Control−Low Control), where the low control is the average of 16 samples treated with 1% DMSO, and the high control is the average of 16 samples treated with 30 μM of Compound Y depicted below. Data were fit using a 4-parameter fit (log(agonist) vs. response variable slope) using GraphPad Prism Software v.5. n=2 for all compounds. The Absolute EC50 was interpolated from the curve fit and is defined as the concentration at which a given compound elicits 50% of the high control response. Compounds failing to elicit a minimum response of 50% are reported as >30 μM. For compounds run in duplicate or n higher than 2, the result herein given is the geometric mean of the several results obtained.

In the next experiment the test system is NO-deficient rats. To be noted: cited from earlier work.
The test system of experiment [3] is Guinea pig tracheal smooth muscle (GPTSM). To be noted: guinea pig tracheal strips, sub-maximal EFS; 95% Cl 0.78-0.94; read-out: IC50, inhibition of baseline EFS-induced contraction; cited from earlier work.
The next experiment concerns obese mice. To be noted: cited from earlier work.

On to `Nc1nc(-c2nn(Cc3ccccc3F)c3ncccc23)nc(N)c1N1CCOCC1` [BAY 41-8543], for which the “magnitude and duration of pulmonary vasodilation induced by iNO” value in experiment [1] (after inhaling microparticles) was “augmented”. Moreover, in experiment [1] (inhaled microparticles), the “effect on mean arterial pressure” value is given as “without significant effect on mean arterial pressure”, the pulmonary vasodilation result is “dose dependent pulmonary vasodilation”, the “transpulmonary cGMP release” value is listed as “increased transpulmonary cGMP release” and the systemic arterial oxygenation result is listed as “increased systemic arterial oxygenation”.

`CN1CC(=O)N2[C@H](c3ccc4c(c3)OCO4)c3[nH]c4ccccc4c3C[C@@H]2C1=O` [tadalafil]: in the experiment on patients with BMD, the “normal blood flow regulation” value was “restored in eight of nine patients”.

In the case of `O=C(O)CCCCN(CCc1ccccc1OCc1ccc(CCc2ccccc2)cc1)Cc1ccc(C(=O)O)cc1` [BAY 58-2667], the “pulmonary vasodilation and transpulmonary cGMP release after treatment with ODQ” value in experiment [1] (inhaled microparticles, after intravenous ODQ) is on record as “greatly enhanced”. Besides, in experiment [1] (inhaled microparticles), the “effect on mean arterial pressure” value is recorded as “without significant effect on mean arterial pressure”, the pulmonary vasodilation result is recorded as “dose dependent pulmonary vasodilation”, the “transpulmonary cGMP release” value is on record as “increased transpulmonary cGMP release” and the systemic arterial oxygenation entry was “increased systemic arterial oxygenation”. As for `CC1(C)C(=O)Nc2nc(-c3cc(OC(F)F)n(Cc4cccc(F)c4F)n3)nc(N)c21` [Compound I-34], the EC50 in experiment [2] fell in the range of 101 to 1000 nM. Same read-out and setting: in the case of `CCOC(=O)C1(C)C(=O)Nc2nc(-c3nn(Cc4ccccc4F)c(OC)c3C)nc(N)c21` (stereo not drawn) [Compound I-45] it was 101 to 1000 nM. For the molecule `Nc1nc(-c2nn(Cc3ccccc3F)c3ncccc23)ncc1C1CC1` [BAY-2272], the “effect on bladder dysfunction” value with NO-deficient rats was “protective effects”. As for `COc1cc(-c2ncc(F)c(N(C)C)n2)nn1Cc1ccccc1F` [Compound I-12], in experiment [2], the EC50 is not below 1000 nM. `Nc1nc(-c2nn(Cc3ccccc3F)c3ncccc23)ncc1C1CC1` [BAY 41-2272]: in experiment [1] (inhaled microparticles), the “effect on mean arterial pressure” value is “without significant effect on mean arterial pressure”, the pulmonary vasodilation entry is “dose dependent pulmonary vasodilation” and the “transpulmonary cGMP release” value is reported as “increased transpulmonary cGMP release”. Regarding `COc1cc(-c2ncc(F)c(N3CC(C)C(C(=O)O)C3)n2)nn1Cc1ccccc1F` (stereo not drawn) [Compound I-36], in experiment [2], the EC50 is not below 1000 nM. On to `Fc1cnc(-c2cc(OC(F)F)n(Cc3cccc(F)c3F)n2)nc1` [Compound I-59], for which the 50% effective concentration (EC50) in experiment [2] is not below 1000 nM. The same measure, in the same setting: for `COc1nc(-c2nc(N)c3c(n2)NC(=O)C3(C)C(N)=O)nn1Cc1ccccc1F` (stereo not drawn) [Compound I-17] the value was not below 1000 nM.

In the case of `COc1cc(-c2nc3c(c(=O)[nH]2)C(C)(C(=O)NC2CC2)C(=O)N3)nn1Cc1ccccc1F` (stereo not drawn) [Compound I-43], the EC50 in experiment [2] was not below 1000 nM. As for `CC1(C(=O)NC2CC2)C(=O)Nc2nc(-c3cc(OC(F)F)n(Cc4cccc(F)c4F)n3)nc(N)c21` (stereo not drawn) [Compound I-54], the EC50 in experiment [2] is 101 to 1000 nM.

For `COc1cc(-c2ncc(F)c(N3CCC(C)(C(=O)O)CC3)n2)nn1Cc1ccccc1F` [Compound I-68], the EC50 in experiment [2] lay within 101 to 1000 nM. As for `CC(C)[N+]1(C)[C@@H]2CC[C@H]1C[C@@H](OC(=O)C(CO)c1ccccc1)C2` (stereo partly drawn) [Ipratropium bromide], the IC50 in experiment [3] was 0.86 nM. Regarding `COC(=O)NC1(C)C(=O)Nc2nc(-c3cc(OC)n(Cc4ccccc4F)n3)[nH]c(=O)c21` (stereo not drawn) [Compound I-26], in experiment [2], the concentration for a half-maximal effect (EC50) is not below 1000 nM. Consider `COc1cc(-c2nccc(N)n2)nn1Cc1ccccc1F` [Compound I-6], for which the EC50 in experiment [2] was not below 1000 nM.

On to `Cn1c(-c2nc(N)c3c(n2)NC(=O)C3(C)C(=O)NC2CC2)nn(Cc2ccccc2F)c1=O` (stereo not drawn) [Compound I-38], for which the EC50 in experiment [2] was not below 1000 nM.

Turning to `COc1cc(-c2ncc(F)c(N3CCC(S(N)(=O)=O)CC3)n2)nn1Cc1ccccc1F` [Compound I-33], the EC50 in experiment [2] was not below 1000 nM. Turning to `CCOC(=O)C1(C)C(=O)Nc2nc(-c3cc(OC(F)F)n(Cc4ccc(F)cc4F)n3)nc(N)c21` (stereo not drawn) [Compound I-55], the EC50 in experiment [2] was in the range of 101 to 1000 nM. Take `COc1cc(-c2ncc(F)c(NC(c3nnn[nH]3)C(C)C)n2)nn1Cc1ccccc1F` (stereo not drawn) [Compound I-65]: the 50% effective concentration (EC50) in experiment [2] was not below 1000 nM. For `O=C(O)CCCCN(CCc1cc(F)ccc1OCc1ccc(-c2ccc(C(F)(F)F)cc2)cc1)Cc1ccc(C(=O)O)cc1` [BAY 60-2770], in the experiment with obese mice, the “effect on overactive bladder” value is on record as “ameliorates overactive bladder in obese mice”. As to `COc1cc(-c2ncc(F)c(NCCO)n2)nn1Cc1ccccc1F` [Compound I-13], the EC50 in experiment [2] was not below 1000 nM. Regarding `COc1cc(-c2ncc(F)c(N3CCC[C@H](C)[C@@H]3C(=O)O)n2)nn1Cc1ccccc1F` [Compound I-70], the EC50 in experiment [2] was 101 to 1000 nM. As for `CC1(C(=O)NC2CC2)C(=O)Nc2nc(-c3cc(OC(F)F)n(Cc4cccc(F)c4F)n3)ncc21` (stereo not drawn) [Compound I-40], the EC50 in experiment [2] lay in the range of 101 to 1000 nM.

In the case of `CCOC(=O)C1(C)C(=O)Nc2nc(-c3cc(OC(C)C)n(Cc4ccccc4F)n3)nc(N)c21` (stereo not drawn) [Compound I-8], the half-maximal effective concentration (EC50) in experiment [2] was not below 1000 nM.

As a reminder, the EC50 is the concentration giving half of the maximal effect. As a reminder, the IC50 is the concentration that inhibits the measured activity by half.
